Legend:
Format in all cases: in vivo
[1] = test system: kochia (Kochia scoparia); assay: Test A preemergence, visual injury rating
Method in brief: (§1)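 Injury scores run from 0, no effect, to 100, complete control, judged by eye against untreated plants roughly 10 days after treatment. Chemicals carried a surfactant in a non-phytotoxic solvent and went onto loam–sand soil preemergence or onto one- to two-leaf seedlings postemergence.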

[2] = test system: ragweed (common ragweed, Ambrosia elatior); assay: Test A preemergence, visual injury rating
Method in brief: as §1

[3] = test system: pigweed (Amaranthus retroflexus); assay: Test A preemergence, visual injury rating
Method in brief: as §1

[4] = test system: Italian ryegrass (Lolium multiflorum); assay: Test A preemergence, visual injury rating
Method in brief: as §1

[5] = test system: giant foxtail (Setaria faberii); assay: Test A preemergence, visual injury rating
Method in brief: as §1

[6] = test system: barnyardgrass (Echinochloa crus-galli); assay: Test A preemergence, visual injury rating
Method in brief: as §1

[7] = test system: sedge, umbrella (small-flower umbrella sedge, Cyperus difformis); assay: Test B flooded paddy test, plant response rating; settings: 250 g ai/ha; Flood; scale of 0 to 100 where 0 is no effect and 100 is complete control; 13 to 15 days
Method in brief: (§2)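 Ratings were visual and made relative to untreated controls after 13 to 15 greenhouse days.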

[8] = test system: barnyardgrass (Echinochloa crus-galli); assay: Test B flooded paddy test, plant response rating; settings: 250 g ai/ha; Flood; scale of 0 to 100 where 0 is no effect and 100 is complete control; 13 to 15 days
Method in brief: as §2

[9] = test system: ducksalad (Heteranthera limosa); assay: Test B flooded paddy test, plant response rating; settings: 250 g ai/ha; Flood; scale of 0 to 100 where 0 is no effect and 100 is complete control; 13 to 15 days
Method in brief: as §2

[10] = test system: rice (Oryza sativa); assay: Test B flooded paddy test, plant response rating; settings: 250 g ai/ha; Flood; scale of 0 to 100 where 0 is no effect and 100 is complete control; 13 to 15 days
Method in brief: as §2

[11] = test system: kochia (Kochia scoparia); assay: Test A postemergence, visual injury rating
Method in brief: as §1

[12] = test system: ragweed (common ragweed, Ambrosia elatior); assay: Test A postemergence, visual injury rating
Method in brief: as §1

[13] = test system: pigweed (Amaranthus retroflexus); assay: Test A postemergence, visual injury rating
Method in brief: as §1

[14] = test system: Italian ryegrass (Lolium multiflorum); assay: Test A postemergence, visual injury rating
Method in brief: as §1

[15] = test system: giant foxtail (Setaria faberii); assay: Test A postemergence, visual injury rating
Method in brief: as §1

[16] = test system: blackgrass (Alopecurus myosuroides); assay: Test A postemergence, visual injury rating
Method in brief: as §1

[17] = test system: corn (Zea mays); assay: Test A postemergence, visual injury rating
Method in brief: as §1

[18] = test system: wheat (Triticum aestivum); assay: Test A postemergence, visual injury rating
Method in brief: as §1

[19] = test system: barnyardgrass (Echinochloa crus-galli); assay: Test A postemergence, visual injury rating; settings: 0 is no effect, 100 is complete control; for Barnyardgrass plant response rating: 0 to 100 scale, approximately 10 days
Method in brief: as §1

[20] = test system: galium (catchweed bedstraw, Galium aparine); assay: Test A postemergence, visual injury rating
Method in brief: as §1

[21] = 31 g ai/ha, 0 to 100 scale, 0 no effect, 100 complete control
[22] = 125 g ai/ha, 0 to 100 scale (0 no effect, 100 complete control)
[23] = 31 g ai/ha, 0 to 100 scale, 0 is no effect, 100 is complete control, approximately 10 days
[24] = 125 g ai/ha, 0 is no effect, 100 is complete control
[25] = 125 g ai/ha, 0 to 100 scale, 0 is no effect, 100 is complete control, approximately 10 days
[26] = 31 g ai/ha, 0 to 100 scale (0 no effect, 100 complete control)

SMILES: CC(C)COC(=O)c1c(Br)cccc1Oc1ncc(Cl)cn1 [Compound 1]
- Plant response rating, Kochia [1, 21]: 0
- Kochia plant response rating [1, 22]: 40
- Plant response rating, Ragweed [2, 21]: 0
- Ragweed plant response rating [2, 22]: 0
- Plant response rating, Pigweed [3, 21]: 20
- Pigweed plant response rating [3, 22]: 70
- Plant response rating, Ryegrass, Italian [4, 21]: 0
- Ryegrass, Italian plant response rating [4, 22]: 0
- Plant response rating, Foxtail, Giant [5, 21]: 30
- Foxtail, Giant plant response rating [5, 22]: 70
- Plant response rating, Barnyardgrass [6, 21]: 20
- Barnyardgrass plant response rating [6, 22]: 30
- Plant response rating, Sedge, Umbrella [7]: 80
- Plant response rating, Barnyardgrass [8]: 0
- Plant response rating, Ducksalad [9]: 20
- Plant response rating, Rice [10]: 0
- Kochia plant response rating [11, 23]: 20
- Kochia plant response rating (0 to 100 scale) [11, 24]: 30
- Ragweed plant response rating [12, 23]: 0
- Ragweed plant response rating (0 to 100 scale) [12, 24]: 10
- Pigweed plant response rating [13, 23]: 40
- Pigweed plant response rating (0 to 100 scale) [13, 24]: 70
- Ryegrass, Italian plant response rating [14, 23]: 0
- Ryegrass, Italian plant response rating (0 to 100 scale) [14, 24]: 0
- Foxtail, Giant plant response rating [15, 23]: 30
- Foxtail, Giant plant response rating (0 to 100 scale) [15, 24]: 60
- Blackgrass plant response rating [16, 23]: 0
- Blackgrass plant response rating (0 to 100 scale) [16, 24]: 20
- Corn plant response rating [17, 23]: 0
- Corn plant response rating (0 to 100 scale) [17, 24]: 20
- Wheat plant response rating [18, 23]: 0
- Wheat plant response rating (0 to 100 scale) [18, 24]: 0
- Barnyardgrass plant response rating ([19]; 31 g ai/ha): 20
- Barnyardgrass plant response rating (0 to 100 scale) ([19]; 125 g ai/ha): 30
- Galium plant response rating [20, 23]: 50
- Galium plant response rating (0 to 100 scale) [20, 24]: 70

SMILES: CCCCC(C#N)c1c(Br)cccc1Oc1ncc(Cl)cn1 (stereo not drawn) [Compound 114]
- Plant response rating, Kochia [1, 21]: 0
- Plant response rating, Kochia [1, 22]: 10
- Plant response rating, Ragweed [2, 21]: 20
- Plant response rating, Ragweed [2, 22]: 80
- Plant response rating, Pigweed [3, 21]: 0
- Plant response rating, Pigweed [3, 22]: 30
- Plant response rating, Ryegrass, Italian [4, 21]: 0
- Plant response rating, Ryegrass, Italian [4, 22]: 0
- Plant response rating, Foxtail, Giant [5, 21]: 10
- Plant response rating, Foxtail, Giant [5, 22]: 90
- Plant response rating, Barnyardgrass [6, 21]: 0
- Plant response rating, Barnyardgrass [6, 22]: 20
- Plant response rating, Sedge, Umbrella [7]: 90
- Plant response rating, Barnyardgrass [8]: 0
- Plant response rating, Ducksalad [9]: 40
- Plant response rating, Rice [10]: 0
- Kochia plant response rating [11, 23]: 20
- Kochia plant response rating [11, 25]: 80
- Ragweed plant response rating [12, 23]: 0
- Ragweed plant response rating [12, 25]: 20
- Pigweed plant response rating [13, 23]: 50
- Pigweed plant response rating [13, 25]: 100
- Ryegrass, Italian plant response rating [14, 23]: 0
- Ryegrass, Italian plant response rating [14, 25]: 10
- Foxtail, Giant plant response rating [15, 23]: 0
- Foxtail, Giant plant response rating [15, 25]: 20
- Blackgrass plant response rating [16, 23]: 0
- Blackgrass plant response rating [16, 25]: 10
- Corn plant response rating [17, 23]: 10
- Corn plant response rating [17, 25]: 20
- Wheat plant response rating [18, 23]: 0
- Wheat plant response rating [18, 25]: 10
- Barnyardgrass plant response rating ([19]; 31 g ai/ha): 0
- Barnyardgrass plant response rating ([19]; 125 g ai/ha): 10
- Galium plant response rating [20, 23]: 50
- Galium plant response rating [20, 25]: 80

SMILES: CC(=NOC(C)C)c1c(C#N)cccc1Oc1ncc(Cl)cn1 [Compound 69]
- Plant response rating, Kochia [1, 21]: 0
- Kochia plant response rating [1, 22]: 30
- Plant response rating, Ragweed [2, 21]: 0
- Ragweed plant response rating [2, 22]: 0
- Plant response rating, Pigweed [3, 21]: 40
- Pigweed plant response rating [3, 22]: 100
- Plant response rating, Ryegrass, Italian [4, 21]: 0
- Ryegrass, Italian plant response rating [4, 22]: 0
- Plant response rating, Foxtail, Giant [5, 21]: 40
- Foxtail, Giant plant response rating [5, 22]: 70
- Plant response rating, Barnyardgrass [6, 21]: 70
- Barnyardgrass plant response rating [6, 22]: 90
- Plant response rating, Sedge, Umbrella [7]: 80
- Plant response rating, Barnyardgrass [8]: 0
- Plant response rating, Ducksalad [9]: 75
- Plant response rating, Rice [10]: 20
- Kochia plant response rating [11, 23]: 20
- Kochia plant response rating [11, 25]: 40
- Ragweed plant response rating [12, 23]: 0
- Ragweed plant response rating [12, 25]: 0
- Pigweed plant response rating [13, 23]: 40
- Pigweed plant response rating [13, 25]: 80
- Ryegrass, Italian plant response rating [14, 23]: 0
- Ryegrass, Italian plant response rating [14, 25]: 0
- Foxtail, Giant plant response rating [15, 23]: 20
- Foxtail, Giant plant response rating (0 to 100 scale) [15, 24]: 30
- Blackgrass plant response rating [16, 23]: 10
- Blackgrass plant response rating (0 to 100 scale) [16, 24]: 30
- Corn plant response rating [17, 23]: 0
- Corn plant response rating (0 to 100 scale) [17, 24]: 20
- Wheat plant response rating [18, 23]: 0
- Wheat plant response rating [18, 25]: 0
- Barnyardgrass plant response rating ([19]; 31 g ai/ha): 10
- Barnyardgrass plant response rating (0 to 100 scale) ([19]; 125 g ai/ha): 70
- Galium plant response rating [20, 23]: 40
- Galium plant response rating (0 to 100 scale) [20, 24]: 60

SMILES: CC(=NOC(C)C)c1c(Cl)cccc1Oc1ncc(Cl)cn1 [Compound 104]
- Plant response rating, Kochia [1, 21]: 0
- Plant response rating, Kochia [1, 22]: 0
- Plant response rating, Ragweed [2, 21]: 0
- Plant response rating, Ragweed [2, 22]: 0
- Plant response rating, Pigweed [3, 21]: 0
- Plant response rating, Pigweed [3, 22]: 40
- Plant response rating, Ryegrass, Italian [4, 21]: 0
- Plant response rating, Ryegrass, Italian [4, 22]: 0
- Plant response rating, Foxtail, Giant [5, 21]: 0
- Plant response rating, Foxtail, Giant [5, 22]: 40
- Plant response rating, Barnyardgrass [6, 21]: 0
- Barnyardgrass plant response rating [6, 22]: 30
- Plant response rating, Sedge, Umbrella [7]: 75
- Plant response rating, Barnyardgrass [8]: 0
- Plant response rating, Ducksalad [9]: 75
- Plant response rating, Rice [10]: 0
- Kochia plant response rating [11, 23]: 0
- Kochia plant response rating [11, 25]: 10
- Ragweed plant response rating [12, 23]: 0
- Ragweed plant response rating [12, 25]: 0
- Pigweed plant response rating [13, 23]: 10
- Pigweed plant response rating [13, 25]: 40
- Ryegrass, Italian plant response rating [14, 23]: 0
- Ryegrass, Italian plant response rating [14, 25]: 0
- Foxtail, Giant plant response rating [15, 23]: 0
- Foxtail, Giant plant response rating [15, 25]: 10
- Blackgrass plant response rating [16, 23]: 0
- Blackgrass plant response rating [16, 25]: 20
- Corn plant response rating [17, 23]: 0
- Corn plant response rating [17, 25]: 10
- Wheat plant response rating [18, 23]: 0
- Wheat plant response rating [18, 25]: 0
- Barnyardgrass plant response rating ([19]; 31 g ai/ha): 0
- Barnyardgrass plant response rating ([19]; 125 g ai/ha): 0
- Galium plant response rating [20, 23]: 10
- Galium plant response rating [20, 25]: 30

SMILES: N#Cc1cccc(Oc2ncc(Cl)cn2)c1C(=O)CCC(F)(F)F [Compound 142]
- Plant response rating, Kochia [1, 21]: 0
- Plant response rating, Kochia [1, 22]: 0
- Plant response rating, Ragweed [2, 21]: 0
- Plant response rating, Ragweed [2, 22]: 0
- Plant response rating, Pigweed [3, 21]: 0
- Plant response rating, Pigweed [3, 22]: 0
- Plant response rating, Ryegrass, Italian [4, 21]: 0
- Plant response rating, Ryegrass, Italian [4, 22]: 0
- Plant response rating, Foxtail, Giant [5, 21]: 0
- Plant response rating, Foxtail, Giant [5, 22]: 0
- Plant response rating, Barnyardgrass [6, 21]: 0
- Plant response rating, Barnyardgrass [6, 22]: 0
- Plant response rating, Sedge, Umbrella [7]: 0
- Plant response rating, Barnyardgrass [8]: 0
- Plant response rating, Ducksalad [9]: 0
- Plant response rating, Rice [10]: 0
- Kochia plant response rating [11, 26]: 0
- Kochia plant response rating [11, 25]: 10
- Ragweed plant response rating [12, 26]: 0
- Ragweed plant response rating [12, 25]: 20
- Pigweed plant response rating [13, 26]: 0
- Pigweed plant response rating [13, 25]: 20
- Ryegrass, Italian plant response rating [14, 26]: 0
- Ryegrass, Italian plant response rating [14, 25]: 0
- Foxtail, Giant plant response rating [15, 26]: 0
- Foxtail, Giant plant response rating [15, 25]: 0
- Blackgrass plant response rating [16, 26]: 0
- Blackgrass plant response rating [16, 25]: 0
- Corn plant response rating [17, 26]: 0
- Corn plant response rating [17, 25]: 10
- Wheat plant response rating [18, 26]: 0
- Wheat plant response rating [18, 25]: 0
- Barnyardgrass plant response rating ([19]; 31 g ai/ha): 0
- Barnyardgrass plant response rating ([19]; 125 g ai/ha): 0
- Galium plant response rating [20, 26]: 0
- Galium plant response rating [20, 25]: 20
